Assay results taken from patent publication US20050170989A1, “Fluorine-containing water-soluble nonionic surface-active compounds, use thereof and process for preparation of the compounds” (DAIKIN INDUSTRIES, LTD., priority 2002, published 2005).

Tests used:
Assay type in all cases: physicochemical
[1] = Dynamic surface tension by the maximum bubble pressure method; conditions: 0.5 wt. % aqueous solution, 25° C., at 100 milliseconds
Description: For the measurement of dynamic surface tension, each compound was dissolved in water, heated if necessary, to prepare 80 g of 0.5 wt. % aqueous solutions. The dynamic surface tension thereof was measured at 25° C. according to the maximum bubble pressure method. The obtained value was that measured at 100 milliseconds. The measurement instrument used was a “KRUSS BUBBLE PRESSURE TENSIOMETER-BP2”.

[2] = Water solubility evaluation, observed with the naked eye; conditions: 25° C.; for Water Solubility 1%: 1 wt. % aqueous mixture; for Water Solubility 5%: 5 wt. % aqueous mixture; for Water Solubility 50%: 50 wt. % aqueous mixture
Description: For the evaluation of water solubility, a uniform liquid was used that was obtained by heating each compound at about 60° C. 5g aqueous mixtures were prepared at predetermined concentrations (1 wt. %, 5 wt. % and 50 wt. %) in capped sample bottles.

[3] = Static surface tension by the Wilhelmy method (plate method); conditions: 0.1 wt. % aqueous solution, left 1 day, 25° C.
Description: For the measurement of surface tension, a uniform liquid was used that was obtained by heating each compound at about 60° C. The compounds were each dissolved in water to prepare 10 g of 0.1 wt. % aqueous solutions. After the aqueous solutions were left to stand for 1 day, the static surface tension thereof was measured at 25° C. according to the Wilhelmy method (plate method). The measurement instrument used was a “SURFACE TENSIOMETER CBVP-A3” (product of Kyowa Interface Science Co., Ltd.).

Row | Substance | Dynamic Surface Tension 0.50% [1] [mN/m] | Water Solubility 1% [2] | Water Solubility 5% [2] | Water Solubility 50% [2] | Static Surface Tension 0.10% [3] [mN/m]
1 | C4F9—CH2CH(OH)CH2O—(CH2CH2O)20—C18H37 [Example 4] | 36 | Dissolved | Dissolved | Uniform gel | 24.1
2 | C4F9—CH2CH(OH)CH2O—(CH2CH2O)40—C16H33 [Example 3] | 45 | Dissolved | Dissolved | Dissolved | 30.5
3 | C4F9—CH2CH(OH)CH2O—(CH2CH2O)23—C16H33 [Example 1] | 34 | Dissolved | Dissolved | Dissolved | 24.2
4 | C16H33O—(CH2CH2O)15—H [Comparative Example 8, reference compound] | 59 | Dissolved | Suspended | Solid | 37.5
5 | C4F9—CH2CH(OH)CH2O—(CH2CH2O)25—C16H33 [Example 2] | 34 | Dissolved | Dissolved | Dissolved | 23.8
6 | C18H33COO—(CH2CH2O)23—COC18H33 [Comparative Example 9, reference compound] | 61 | Dissolved | Dissolved | Uniform gel | 34.8

Second part, the substance after the results:

Row | Dynamic Surface Tension 0.50% [1] [mN/m] | Water Solubility 1% [2] | Water Solubility 5% [2] | Water Solubility 50% [2] | Static Surface Tension 0.10% [3] [mN/m] | Substance
7 | 30 | Dissolved | Dissolved | Dissolved | 21.9 | C4F9—CH2CH(OH)CH2O—(CH2CH2O)21—C12H25 [Example 5]
8 | 32 | Dissolved | Dissolved | Dissolved | 18.4 | C4F9—CH2CH(OH)CH2O—(CH2CH2O)23—CH2CH(OH)CH2—C4F9 [Example 7]
9 | 34 | Dissolved | Dissolved | Dissolved | 19.1 | C4F9—CH2CH(OH)CH2O—(CH2CH2O)45—CH2CH(OH)CH2—C4F9 [Example 9]
10 | 35 | Dissolved | Dissolved | Dissolved | 23.1 | C4F9—CH2CH(OH)CH2O—(CH2CH2O)25—C12H25 [Example 6]
11 | 32 | Dissolved | Dissolved | Dissolved | 18.6 | C4F9—CH2CH(OH)CH2O—(CH2CH2O)35—CH2CH(OH)CH2—C4F9 [Example 8]
